Test results as given in patent US8859848B2, “Phloretin glycosyltransferases, polynucleotides encoding these and methods of use” (The New Zealand Institute for Plant and Food Research …, priority 2007, dated 2014).
“Also recorded” adds a separate entry of the source. Like-named read-outs stand apart in the source and are kept apart here.

T1: MpUGT88A1 (Malus domestica, UniProt B3TKC8)
T1 construct: The entire coding region of the MpUGT88A1 cDNA was cloned in frame into the expression vector pET30a(+); made in house; host or cells: E. coli BL21-Codon-Plus-RIL
T1 sequence (B3TKC8 1-483): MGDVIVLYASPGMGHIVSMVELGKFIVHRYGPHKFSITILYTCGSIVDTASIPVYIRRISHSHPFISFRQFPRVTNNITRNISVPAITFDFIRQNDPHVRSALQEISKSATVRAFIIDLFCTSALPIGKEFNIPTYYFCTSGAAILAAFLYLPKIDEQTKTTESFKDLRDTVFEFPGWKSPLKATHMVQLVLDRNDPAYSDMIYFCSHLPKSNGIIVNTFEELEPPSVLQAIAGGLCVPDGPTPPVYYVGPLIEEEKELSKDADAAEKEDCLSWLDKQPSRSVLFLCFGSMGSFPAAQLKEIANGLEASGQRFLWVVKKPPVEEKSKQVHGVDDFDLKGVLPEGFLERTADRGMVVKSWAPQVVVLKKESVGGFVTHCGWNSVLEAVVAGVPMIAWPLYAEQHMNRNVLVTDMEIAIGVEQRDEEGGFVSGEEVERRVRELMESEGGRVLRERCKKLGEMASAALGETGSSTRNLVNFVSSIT

B1: MpUGT88A1: Malus domestica uridine diphosphate glycosyltransferase; recombinant His6-tagged phloretin glycosyltransferase produced in E. coli (protein, listed as Malus domestica)
chain: T1 sequence (B3TKC8 1-483)
modifications: His6 tag
notes: Malus domestica uridine diphosphate glycosyltransferase; recombinant His6-tagged phloretin glycosyltransferase produced in E. coli
B2: Md—138221: variant phloretin glycosyltransferase polypeptide from Malus x domestica (protein, listed as Malus domestica)
chain: MGDVIVLYAAPGMGHVISMVELGKLILHRYGPHKFSITILYTCGSFFDTPSIPAYIRRISHSHPSISFRQFPRVTNKITQNISGTAIVVDFVRQNDPHVRRALQDISKSAVVRAFIIDLVCTSAMTISKEFDIPTYYFYTSGAAALGAFLYFPKIHEQTTQSFKDLTDTVIEFPGRKSPLKAIHMIEPLLDRDDPAYWDFLSFCSDLPKSKGIIVNTFEELEPPAVLHAIAEGLCVPDGPTSPVYYVGPLIDEEKVSGNDAAAAEEDCLSWLDKQPSRSVVFLCFGSRGSLPAIQLKEIAKALEASGQRFLWVVKKPPVDEKTKQVLGVDDFDLEGVLPEGFLERTKDRGMVVKSWAPQAEVLKKESVGGFVTHCGWNSVLEAVVAGVPMIAWPLYAEQHLNRNVMATDMEIAIAVEQRDEEDGFVSGEELERRVRELMESEEGRVLRERSKKIGEMAMAALGENGSSTRNLVNFVNSLT

Key:
Format in all cases: biochemical
MpUGT88A1 [1] = biological target: T1, MpUGT88A1; assay: UGT activity assay with [3H]-UDP-glucose, recombinant MpUGT88A1; settings: [3H]-UDP-glucose as sugar donor; 2 mM substrate; 30° C., 30 min
Protocol: UGT activity assays were performed in triplicate in 50 μl reactions using ˜1-2 μg of recombinant protein purified on His-Trap and G200 Superdex columns. […] Reactions were performed at 30° C. for 30 min and terminated by addition of 10 μL of 2 M HCl. The reaction mixtures were extracted twice with 100 μL of ethyl acetate and 20 μl of the organic phase were combined with 1 ml of non-aqueous scintillation fluid and analysed by liquid scintillation counting (Tri-Carb 2900TR, PerkinElmer, Boston, Mass., USA). Boiled enzyme and pET30a(+) vector controls were run in parallel with all enzyme reactions. […]
Fifteen substrates (caffeic acid, catechin, chlorogenic acid, 2-coumaric acid, 3-coumaric acid, 4-coumaric acid, cyanidin, 3-(3,4 dihydroxyphenyl) propionic acid, epicatechin, 3-hydroxybenzoic acid, naringenin, phloretin, protocatechuic acid, quercetin and rutin) that are natural constituents of apple fruit or commonly available phenolic compounds were screened for activity.

MpUGT88A1 [2] = biological target: T1, MpUGT88A1; settings: 2 μM phloretin; for inhibition of enzyme activity by divalent cations: 25 mM
Protocol: (§1) UGT activity assays were performed in triplicate in 50 μl reactions using ˜1-2 μg of recombinant protein purified on His-Trap and G200 Superdex columns. […] Reactions were performed at 30° C. for 30 min and terminated by addition of 10 μL of 2 M HCl. The reaction mixtures were extracted twice with 100 μL of ethyl acetate and 20 μl of the organic phase were combined with 1 ml of non-aqueous scintillation fluid and analysed by liquid scintillation counting (Tri-Carb 2900TR, PerkinElmer, Boston, Mass., USA). Boiled enzyme and pET30a(+) vector controls were run in parallel with all enzyme reactions.
(§2) The effect on UGT activity of different pH (5-10), temperature (15-50° C.) and ionic strength of monovalent (Na^+, 0-100 mM; K^+, 0-10 mM) and divalent ions ([…] or Mn^2+, 0-25 mM) was determined as described above using 2 μM phloretin.

MpUGT88A1 [3] = biological target: T1, MpUGT88A1; settings: 10 μM phloretin, 250 μM UDP-sugar, 16 h
[4] = Effect of pH and temperature on UGT activity of MpUGT88A1 towards phloretin; settings: 2 μM phloretin
Protocol: as §1, §2

[5] = Phloretin glycosyl transferase activity assay of recombinant Md—138221; settings: recombinant protein from E. coli
Protocol: as §1

Row | Molecule | utilised by MpUGT88A1 as an acceptor (substrate screen) (MpUGT88A1 [1]) | also measured
1 | O=C(O)/C=C/c1cccc(O)c1 [3-coumaric acid] | only phloretin was utilised | –
2 | O=C(O)CCc1ccc(O)c(O)c1 [3-(3,4 dihydroxyphenyl) propionic acid] | only phloretin was utilised | –
3 | O=C(O)/C=C/c1ccc(O)c(O)c1 [caffeic acid] | only phloretin was utilised | –
4 | [Mn+2] [Mn^2+] | – | inhibition of enzyme activity by divalent cations (MpUGT88A1 [2]): not inhibited
5 | O=C(/C=C/c1ccc(O)c(O)c1)O[C@@H]1C[C@](O)(C(=O)O)C[C@@H](O)[C@H]1O [chlorogenic acid] | only phloretin was utilised | –
6 | [K+] [K^+] | – | inhibition of enzyme activity by monovalent cation (MpUGT88A1 [2]; 10 mM): not inhibited
7 | O=C(O)/C=C/c1ccc(O)cc1 [4-coumaric acid] | only phloretin was utilised | –
8 | catechin | only phloretin was utilised | –
9 | [Mg+2] [Mg^2+] | – | inhibition of enzyme activity by divalent cations (MpUGT88A1 [2]): not inhibited
10 | O=c1c(O)c(-c2ccc(O)c(O)c2)oc2cc(O)cc(O)c12 [quercetin] | only phloretin was utilised; also recorded: not utilised as substrates | –
11 | O=C(O)/C=C/c1ccccc1O [2-coumaric acid] | only phloretin was utilised | –
12 | O=C1C[C@@H](c2ccc(O)cc2)Oc2cc(O)cc(O)c21 [naringenin] | only phloretin was utilised; also recorded: not utilised as substrates | –
13 | [Na+] [Na^+] | – | inhibition of enzyme activity by monovalent cation (MpUGT88A1 [2]; 100 mM): not inhibited
14 | O=C(O)c1cccc(O)c1 [3-hydroxybenzoic acid] | only phloretin was utilised | –
15 | O=C(CCc1ccc(O)cc1)c1c(O)cc(O)cc1O [phloretin] | only phloretin was utilised | –
16 | O=c1ccn([C@@H]2O[C@H](COP(=O)(O)OP(=O)(O)O[C@H]3OC[C@@H](O)[C@H](O)[C@H]3O)[C@@H](O)[C@H]2O)c(=O)[nH]1 [UDP-xylose] | – | glycosylated product formation with phloretin and activated sugar donor (HPLC/LC-MS) (MpUGT88A1 [3]): a single glycosylated product was formed
17 | O=C(O)c1ccc(O)c(O)c1 [protocatechuic acid] | only phloretin was utilised | –
18 | B1 | – | pH range of significant activity ([4]; pH range 5-10): 7-8; pH of maximum activity ([4]; pH range 5-10, 50 mM Tris-HCl): 7.7; activity at pH 5 and 10 ([4]; relative to maximum): less than 5%; activity at pH 6 and 9 ([4]; relative to maximum): 20%; temperature of maximum activity ([4]; standard conditions): 25 °C; temperature range of activity ([4]; standard conditions): 15-50 °C
19 | B2 | – | phloretin glycosyltransferase activity relative to that shown for MpUGT88A1 [5]: approximately 3%
